Our source for the EC50 and IC50 values is ChEMBL document CHEMBL5209585, “FFN206 based assay for SLC18A2 using HEK-293 SLC18A2 OE cells” (2022).

As usually defined, the EC50 is the midpoint of the concentration-response curve. Lower therefore signals higher potency in that assay. In general, IC50 refers to the concentration that gives 50% inhibition. A lower IC50 goes with higher potency.

For this assay, the target named is Synaptic vesicular amine transporter (Homo sapiens, UniProt Q05940). The assay is described as follows: Substrate uptake and inhibition of the Vesicular Amine Transporter 2 (VMAT2, SLC18A2) as assessed by uptake of a fluorescent substrate (FFN206) in HEK-293 JumpIN-SLC18A2 cells (PubChem AID: 1794817). It is filed as functional, cell-based, HEK293.
Chain of Synaptic vesicular amine transporter (Q05940 whole entry): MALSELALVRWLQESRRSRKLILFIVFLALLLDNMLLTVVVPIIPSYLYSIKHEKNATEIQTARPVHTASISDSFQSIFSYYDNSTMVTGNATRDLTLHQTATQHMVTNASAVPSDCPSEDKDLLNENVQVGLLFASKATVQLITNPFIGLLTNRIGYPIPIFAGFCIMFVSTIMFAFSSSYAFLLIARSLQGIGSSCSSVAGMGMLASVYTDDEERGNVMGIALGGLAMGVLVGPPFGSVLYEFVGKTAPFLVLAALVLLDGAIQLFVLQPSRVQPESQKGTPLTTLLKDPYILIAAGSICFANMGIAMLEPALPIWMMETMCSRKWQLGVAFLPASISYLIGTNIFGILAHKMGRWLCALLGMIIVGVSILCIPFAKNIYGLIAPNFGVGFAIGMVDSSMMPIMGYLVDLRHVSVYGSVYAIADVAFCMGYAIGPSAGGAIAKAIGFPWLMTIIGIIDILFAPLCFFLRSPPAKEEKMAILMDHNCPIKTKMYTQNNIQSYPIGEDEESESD

The compound `CNc1ccc2c(CCN)cc(=O)oc2c1` displayed an EC50 of 3560 nM. The compound `COc1cc2c(cc1OC)C1CC(=O)C(CC(C)C)CN1CC2` (configuration not stated) [TETRABENAZINE] yielded an IC50 of 19.8 nM.
